Molecules are shown by their SMILES. Where two headings read alike, the source gives them in different places.

A word on the IC50: it is the midpoint of a concentration-inhibition curve. Read a high IC50 as weaker potency.

The target in test [1] is T1, Full length Human HDAC8 (Homo sapiens, UniProt Q9BY41).
T1 sequence (Q9BY41 1-377): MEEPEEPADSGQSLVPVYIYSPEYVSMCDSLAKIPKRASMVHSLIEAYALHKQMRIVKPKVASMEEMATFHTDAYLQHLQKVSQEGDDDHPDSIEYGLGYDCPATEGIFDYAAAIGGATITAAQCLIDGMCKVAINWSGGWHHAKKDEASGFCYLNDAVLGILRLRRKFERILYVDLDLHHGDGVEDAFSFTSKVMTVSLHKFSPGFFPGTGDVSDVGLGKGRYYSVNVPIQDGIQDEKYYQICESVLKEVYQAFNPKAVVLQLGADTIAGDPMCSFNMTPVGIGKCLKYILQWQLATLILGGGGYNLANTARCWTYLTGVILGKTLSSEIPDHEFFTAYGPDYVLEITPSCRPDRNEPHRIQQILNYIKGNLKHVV

In test [2] the target is T2, Full length Human HDAC6 (Homo sapiens, UniProt Q9UBN7).
T2 sequence (Q9UBN7 1-1215): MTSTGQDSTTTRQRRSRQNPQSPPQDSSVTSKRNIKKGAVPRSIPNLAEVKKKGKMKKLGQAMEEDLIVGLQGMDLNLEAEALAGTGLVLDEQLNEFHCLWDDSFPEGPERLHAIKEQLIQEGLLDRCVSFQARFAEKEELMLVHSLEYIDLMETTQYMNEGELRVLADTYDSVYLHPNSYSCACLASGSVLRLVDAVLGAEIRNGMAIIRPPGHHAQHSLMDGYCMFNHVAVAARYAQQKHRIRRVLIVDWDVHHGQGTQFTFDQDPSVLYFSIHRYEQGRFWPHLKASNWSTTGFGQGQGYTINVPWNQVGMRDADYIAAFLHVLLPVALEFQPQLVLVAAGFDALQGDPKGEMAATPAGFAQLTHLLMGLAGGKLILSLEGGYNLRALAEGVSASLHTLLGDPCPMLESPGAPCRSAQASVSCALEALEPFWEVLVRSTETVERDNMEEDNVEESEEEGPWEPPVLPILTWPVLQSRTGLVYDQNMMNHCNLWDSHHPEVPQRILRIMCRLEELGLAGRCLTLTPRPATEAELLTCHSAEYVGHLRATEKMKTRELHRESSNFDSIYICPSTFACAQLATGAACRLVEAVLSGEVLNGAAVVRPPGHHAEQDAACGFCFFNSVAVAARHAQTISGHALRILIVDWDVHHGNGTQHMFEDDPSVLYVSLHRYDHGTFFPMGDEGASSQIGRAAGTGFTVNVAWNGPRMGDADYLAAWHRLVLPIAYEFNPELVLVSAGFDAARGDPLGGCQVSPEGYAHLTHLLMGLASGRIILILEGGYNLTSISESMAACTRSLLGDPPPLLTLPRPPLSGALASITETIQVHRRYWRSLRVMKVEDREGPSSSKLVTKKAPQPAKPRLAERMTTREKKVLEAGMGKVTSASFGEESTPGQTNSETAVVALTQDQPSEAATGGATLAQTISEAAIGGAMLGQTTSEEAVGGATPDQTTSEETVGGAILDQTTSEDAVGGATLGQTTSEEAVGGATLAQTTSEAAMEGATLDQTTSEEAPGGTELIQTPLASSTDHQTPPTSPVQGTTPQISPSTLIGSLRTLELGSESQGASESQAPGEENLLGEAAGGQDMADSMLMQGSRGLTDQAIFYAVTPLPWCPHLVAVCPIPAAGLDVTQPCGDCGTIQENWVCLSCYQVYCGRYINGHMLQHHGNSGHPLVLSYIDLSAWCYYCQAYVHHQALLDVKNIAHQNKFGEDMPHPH
The settings on record: for Selectivity (6 v 8) (fold): ratio of HDAC8 IC50/HDAC6 IC50.

Consider `O=C(NO)c1cc(F)c2c(c1)C[C@H]1CCC3(CCCCC3)CN1C2` (single isomer, unassigned) [compound 138], for which the IC50 in test [1] fell in the range of 10000 to 100000 nM; in test [2], 100 to 1000 nM. Also, the “Selectivity (6 v 8) (fold)” value in test [2] (Table 1, number) was 45 fold; in test [2] (Table 1, range class) it was “III (III: >10-100)”.

On to `O=C(NO)c1cc(F)c2c(c1)CN(CC1COC1)CC2` [compound 115, 5-fluoro-N-hydroxy-2-(oxetan-3-ylmethyl)-1,2,3,4-tetrahydroisoquinoline-7-carboxamide], for which the IC50 in test [1] lay within 1000 to 10000 nM; in test [2], 100 to 1000 nM.

`O=C(NO)c1ccc(CN2CCCOCC2)c(F)c1` [compound 47]: the figures for the half-inhibitory concentration (IC50) in test [1] and in test [2] were 100 to 1000 nM and 1 to 100 nM, respectively. For the same compound, the “Selectivity (6 v 8) (fold)” value was 22.3 fold in test [2] (Table 1, number) and “III (III: >10-100)” in test [2] (Table 1, range class).

Consider `O=C(NO)c1cc(F)c2c(c1)CN(CC13CC4CC(CC(C4)O1)C3)C2` [compound 13], for which the IC50 in test [1] lay in the range of 10000 to 100000 nM; in test [2], 100 to 1000 nM. The “Selectivity (6 v 8) (fold)” value was 168.4 fold in test [2] (Table 1, number) and “IV (IV: >100-1000)” in test [2] (Table 1, range class).

On to `O=C(NO)c1cc(F)c2c(c1)CCN([C@H]1CCC13CCCCC3)C2` (single isomer, unassigned) [compound 9], for which the IC50 is 10000 to 100000 nM in test [1] and 1 to 100 nM in test [2]. In addition, the “Selectivity (6 v 8) (fold)” value in test [2] (Table 1, number) is reported as 207.1 fold; in test [2] (Table 1, range class), “IV (IV: >100-1000)”.

Turning to `O=C(NO)c1ccc(CN2CCCC3(CCCCC3)C2)c(F)c1` [compound 64], the 50% inhibitory concentration (IC50) in test [1] lay within 1000 to 10000 nM; in test [2], 1 to 100 nM.

For the compound `CN1Cc2cc(C(=O)NO)ccc2-c2cccn21` [compound 162, N-hydroxy-5-methyl-5,6-dihydropyrrolo[2,1-a]phthalazine-8-carboxamide], the half-inhibitory concentration (IC50) in test [1] fell in the range of 1000 to 10000 nM; in test [2], 100 to 1000 nM. For the same compound, the “Selectivity (6 v 8) (fold)” value in test [2] (Table 1, number) is reported as 2.8 fold; in test [2] (Table 1, range class) it was “II (II: >1-10)”.

For the compound `O=C(NO)c1cc(F)c2c(c1)CCN(C1CCC13CCCCC3)C2` (centres unmarked) [compound 15], the IC50 in test [1] was in the range of 10000 to 100000 nM; in test [2], 1 to 100 nM. For the same compound, the “Selectivity (6 v 8) (fold)” value in test [2] (Table 1, number) is given as 209.2 fold; in test [2] (Table 1, range class), “IV (IV: >100-1000)”.

As for `O=C(NO)c1ccc2c(c1)CCN(CC13CC4CC(CC(C4)C1)C3)C2` [compound 26], the IC50 is 1000 to 10000 nM in test [1] and 1 to 100 nM in test [2]. For the same compound, the “Selectivity (6 v 8) (fold)” value is given as 69.7 fold in test [2] (Table 1, number) and “III (III: >10-100)” in test [2] (Table 1, range class).

As for `O=C(NO)c1cc(F)c2c(c1)CCN(C1CCC1)C2` [compound 4], the values for the half-maximal inhibitory concentration (IC50) in test [1] and in test [2] were 10000 to 100000 nM and 1 to 100 nM, respectively.

In the case of `CN1CC2CCC(C1)N2Cc1ccc(C(=O)NO)cc1F` [compound 56], the results for the IC50 in test [1] and in test [2] were 100 to 1000 nM and 1 to 100 nM, respectively. Further, the “Selectivity (6 v 8) (fold)” value is reported as 19 fold in test [2] (Table 1, number) and “III (III: >10-100)” in test [2] (Table 1, range class).

`O=C(NO)c1ccc(CN2CCC3(CCCC3)C2)c(F)c1` [compound 73]: the half-inhibitory concentration (IC50) in test [1] lay in the range of 1000 to 10000 nM; in test [2], 1 to 100 nM. The “Selectivity (6 v 8) (fold)” value in test [2] (Table 1, number) was 35.8 fold; in test [2] (Table 1, range class), “III (III: >10-100)”.

Consider `CN1CC2CCC1CN2Cc1ccc(C(=O)NO)cc1F` (centres unmarked) [compound 57], for which the IC50 in test [1] lay within 100 to 1000 nM; in test [2], 1 to 100 nM. For the same compound, the “Selectivity (6 v 8) (fold)” value in test [2] (Table 1, number) was 10.7 fold; in test [2] (Table 1, range class), “III (III: >10-100)”.

Take `O=C(NO)c1cc(F)c2c(c1)CN(Cc1ccccc1)CC2` [compound 114, 2-benzyl-5-fluoro-N-hydroxy-1,2,3,4-tetrahydroisoquinoline-7-carboxamide]: the IC50 in test [1] fell in the range of 100 to 1000 nM; in test [2], 1 to 100 nM. For the same compound, the “Selectivity (6 v 8) (fold)” value in test [2] (Table 1, number) is listed as 10.3 fold; in test [2] (Table 1, range class), “III (III: >10-100)”.

For the compound `O=C(NO)c1ccc2c(c1)Cn1cccc1-2` [compound 166, N-hydroxy-5H-pyrrolo[2,1-a]isoindole-7-carboxamide], the IC50 lay in the range of 1000 to 10000 nM in test [1] and 100 to 1000 nM in test [2]. The “Selectivity (6 v 8) (fold)” value is 14 fold in test [2] (Table 1, number) and “III (III: >10-100)” in test [2] (Table 1, range class).

Consider `CN1CC2(CCCCC2)CC[C@H]1Cc1cc(F)cc(C(=O)NO)c1` (single isomer, unassigned) [compound 171], for which the figures for the 50% inhibitory concentration (IC50) in test [1] and in test [2] were 1000 to 10000 nM and 1 to 100 nM, respectively. The “Selectivity (6 v 8) (fold)” value in test [2] (Table 1, number) was 30.2 fold; in test [2] (Table 1, range class) it was “III (III: >10-100)”.

In the case of `Cc1cccc(C)c1CN1CCc2cc(C(=O)NO)cc(F)c2C1` [compound 28], the IC50 lay within 1000 to 10000 nM in test [1] and 1 to 100 nM in test [2].

In the case of `O=C(NO)c1ccc2c(c1)C[C@@H]1COCC(=O)N1C2` (single isomer, unassigned) [compound 133], the IC50 in test [1] is 1000 to 10000 nM; in test [2], 100 to 1000 nM.

With `O=C(NO)c1cc(F)c2c(c1)CCN(CC1CCC1)C2` [compound 3], the IC50 in test [1] fell in the range of 1000 to 10000 nM; in test [2] it was 1 to 100 nM.

In the case of `CC1(CN2CCc3cc(C(=O)NO)cc(F)c3C2)CC1` [compound 1, 8-fluoro-N-hydroxy-2-((1-methylcyclopropyl)methyl)-1,2,3,4-tetrahydroisoquinoline-6-carboxamide], the IC50 in test [1] lay in the range of 10000 to 100000 nM; in test [2] it was 1 to 100 nM. Further, the “Selectivity (6 v 8) (fold)” value in test [2] (Table 1, number) is given as 145.7 fold; in test [2] (Table 1, range class), “IV (IV: >100-1000)”.

Take `O=C(NO)c1ccc(CN2CC3(CCOC3)C2)c(F)c1` [compound 68]: the IC50 is 1000 to 10000 nM in test [1] and 1 to 100 nM in test [2]. The “Selectivity (6 v 8) (fold)” value was 27.9 fold in test [2] (Table 1, number) and “III (III: >10-100)” in test [2] (Table 1, range class).

Regarding `O=C(NO)c1cc(F)c2c(c1)CCN(CC13CC4CC(CC(C4)O1)C3)C2` [compound 14], the IC50 was 10000 to 100000 nM in test [1] and 1 to 100 nM in test [2].

As to `O=C(NO)c1cc(F)c2c(c1)CCn1cccc1-2` [compound 147, 10-fluoro-N-hydroxy-5,6-dihydropyrrolo[2,1-a] isoquinoline-8-carboxamide], the figures for the IC50 in test [1] and in test [2] were 1000 to 10000 nM and 1 to 100 nM, respectively.

As for `O=C(NO)c1cc(F)c2c(c1)CN(CC13CC4CC(CC(C4)C1)C3)CC2` [compound 113, 2-(((3r,5r,7r)-adamantan-1-yl)methyl)-5-fluoro-N-hydroxy-1,2,3,4-tetrahydroisoquinoline-7-carboxamide], the values for the IC50 in test [1] and in test [2] were 1000 to 10000 nM and 1 to 100 nM, respectively.

Regarding `CN1Cc2cc(C(=O)NO)ccc2CN1Cc1ccccc1` [compound 118, 2-benzyl-N-hydroxy-3-methyl-1,2,3,4-tetrahydrophthalazine-6-carboxamide], the IC50 in test [1] lay in the range of 1000 to 10000 nM; in test [2], 1 to 100 nM.

In the case of `O=C(NO)c1ccc(CN2CC3(CCCCC3)C2)c(F)c1` [compound 70], the IC50 in test [1] is 1000 to 10000 nM; in test [2], 1 to 100 nM. Also, the “Selectivity (6 v 8) (fold)” value in test [2] (Table 1, number) was 16 fold; in test [2] (Table 1, range class), “III (III: >10-100)”.

For the compound `O=C(NO)c1ccc(CN2CCOCC2)c(F)c1` [compound 51], the half-inhibitory concentration (IC50) in test [1] was in the range of 100 to 1000 nM; in test [2], 1 to 100 nM. For the same compound, the “Selectivity (6 v 8) (fold)” value in test [2] (Table 1, number) was 27.6 fold; in test [2] (Table 1, range class), “III (III: >10-100)”.

Regarding `O=C(NO)c1ccc2c(c1F)CCN(CC13CC4CC(CC(C4)C1)C3)C2` [compound 21], the figures for the IC50 in test [1] and in test [2] were 1000 to 10000 nM and 100 to 1000 nM, respectively. Besides, the “Selectivity (6 v 8) (fold)” value in test [2] (Table 1, number) was 50.2 fold; in test [2] (Table 1, range class) it was “III (III: >10-100)”.

The values are drawn from patent publication US12528767B2, “HDAC6 inhibitors and uses thereof” (Eikonizo Therapeutics, Inc., priority 2019, dated 2026).
